Assay [1] deals with T1, rat adrenergic α1B receptor (Rattus norvegicus, UniProt P15823).
T1 construct: obtained from Wistar Rat liver; from tissue; host or cells: Wistar rat liver
T1 sequence (P15823 1-515): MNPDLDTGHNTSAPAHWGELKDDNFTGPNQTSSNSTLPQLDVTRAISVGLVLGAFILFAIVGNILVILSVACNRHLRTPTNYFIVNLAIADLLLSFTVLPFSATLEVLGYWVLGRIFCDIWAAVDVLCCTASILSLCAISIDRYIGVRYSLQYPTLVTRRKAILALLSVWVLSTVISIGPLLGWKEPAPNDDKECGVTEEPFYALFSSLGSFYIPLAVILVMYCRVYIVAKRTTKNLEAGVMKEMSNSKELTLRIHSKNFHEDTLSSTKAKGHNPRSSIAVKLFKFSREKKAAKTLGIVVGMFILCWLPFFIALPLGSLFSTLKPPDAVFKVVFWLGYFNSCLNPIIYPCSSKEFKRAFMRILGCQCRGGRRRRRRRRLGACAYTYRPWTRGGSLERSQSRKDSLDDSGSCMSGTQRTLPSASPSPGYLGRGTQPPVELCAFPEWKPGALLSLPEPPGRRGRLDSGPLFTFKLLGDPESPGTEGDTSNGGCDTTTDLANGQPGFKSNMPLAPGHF
As to the kind of experiment: Adrenergic α1B radioligand binding ([3H]Prozosin). As to conditions: compound at 1 μM; Wistar Rat liver; read-out: Adrenergic (1 μM) α1B, percent inhibition of specific binding. How it is done: To evaluate in radioligand binding assays the activity of compounds of the invention, rat adrenergic α1B receptor obtained from Wistar Rat liver (Garcia-S'ainz, J. A. et al., Biochem. Biophys. Res. Commun. 186:760, 1992; Michel A. D. et al. Br. J. Pharmacol. 98:883, 1989) in a modified Tris-HCl buffer (50 mM Tris-HCl buffer, pH 7.4, 0.5 mM EDTA) was used. Compounds of the invention were incubated with 0.25 nM [^3H]Prozosin for 60 minutes at 25° C. Non-specific binding was estimated in the presence of 10 μM phentolamine. Receptor proteins were filtered and washed, the filters were then counted to determine [^3H]Prozosin specifically bound. Compounds were screened at 1 μM or lower, using 1% DMSO as vehicle. Compounds of the invention were tested in this biochemical assay and percent inhibition of specific binding was determined. Biochemical assay results are presented as the percent inhibition of specific binding in Table 6.

Assay [2] has as its target T2, human recombinant adrenergic α2C receptor (Homo sapiens, UniProt P18825).
T2 construct: expressed in transfected cells; host or cells: insect Sf9 cells
T2 sequence (P18825 1-462): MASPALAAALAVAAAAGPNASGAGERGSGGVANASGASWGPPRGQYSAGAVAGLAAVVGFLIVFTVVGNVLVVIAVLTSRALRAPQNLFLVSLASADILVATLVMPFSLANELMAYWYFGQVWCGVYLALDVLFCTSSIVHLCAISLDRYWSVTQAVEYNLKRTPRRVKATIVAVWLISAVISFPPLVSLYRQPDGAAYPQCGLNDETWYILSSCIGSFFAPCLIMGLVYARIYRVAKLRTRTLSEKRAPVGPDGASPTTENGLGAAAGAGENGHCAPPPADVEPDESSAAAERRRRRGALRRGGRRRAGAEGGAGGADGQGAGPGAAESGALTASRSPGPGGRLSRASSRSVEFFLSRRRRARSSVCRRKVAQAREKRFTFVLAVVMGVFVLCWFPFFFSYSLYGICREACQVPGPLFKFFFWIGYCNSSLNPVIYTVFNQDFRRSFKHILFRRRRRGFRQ
As to the kind of experiment: Adrenergic α2C radioligand binding ([3H]MK-912). As to conditions: compound at 1 μM; insect Sf9 cells; read-out: Adrenergic (1 μM) α2C, percent inhibition of specific binding. Here is the method: To evaluate in radioligand binding assays the activity of compounds of the invention, human recombinant adrenergic α2C receptor expressed in insect Sf9 cells (Uhlen S et al. J Pharmacol Exp Ther. 271:1558, 1994) in a modified Tris-HCl buffer (50 mM Tris-HCl, pH 7.4, 12.5 mM MgCl2, 2 mM EDTA) was used. Compounds of the invention were incubated with 1 nM [^3H]MK-912 for 60 minutes at 25° C. Non-specific binding was estimated in the presence of 10 μM WB-4101. Receptor proteins were filtered and washed, the filters were then counted to determine [^3H]MK-912 specifically bound. Compounds were screened at 1 μM or lower, using 1% DMSO as vehicle. Compounds of the invention were tested in this biochemical assay and percent inhibition of specific binding was determined. Biochemical assay results are presented as the percent inhibition of specific binding in Table 6.

In assay [3] the target is T3, rat adrenergic α1A receptor (Rattus norvegicus, UniProt P43140).
T3 construct: obtained from Wistar Rat submaxillary glands; from tissue; host or cells: Wistar rat submaxillary glands
T3 sequence (P43140 1-466): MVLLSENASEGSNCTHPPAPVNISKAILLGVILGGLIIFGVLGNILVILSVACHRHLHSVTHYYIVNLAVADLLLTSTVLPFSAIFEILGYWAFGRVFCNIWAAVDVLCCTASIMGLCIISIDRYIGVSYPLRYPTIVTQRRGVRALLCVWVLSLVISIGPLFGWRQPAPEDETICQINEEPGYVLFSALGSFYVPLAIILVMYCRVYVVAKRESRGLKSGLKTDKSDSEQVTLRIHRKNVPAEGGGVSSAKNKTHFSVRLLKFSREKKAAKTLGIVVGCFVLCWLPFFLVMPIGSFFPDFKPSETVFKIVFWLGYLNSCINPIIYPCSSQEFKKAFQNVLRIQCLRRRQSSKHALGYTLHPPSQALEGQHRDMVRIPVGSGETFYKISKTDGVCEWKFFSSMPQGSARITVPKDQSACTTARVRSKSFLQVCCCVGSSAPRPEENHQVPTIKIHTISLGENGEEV
As to the kind of experiment: Adrenergic α1A radioligand binding ([3H]Prozosin). As to conditions: compound at 1 μM; Wistar Rat submaxillary glands; read-out: Adrenergic (1 μM) α1A, percent inhibition of specific binding. How it is done: To evaluate in radioligand binding assays the activity of compounds of the invention, rat adrenergic α1A receptor obtained from Wistar Rat submaxillary glands (Michel, A. D. et al., Br. J. Pharmacol. 98:883, 1989) in a modified Tris-HCl buffer (50 mM Tris-HCl buffer, pH 7.4, 0.5 mM EDTA) was used. Compounds of the invention were incubated with 0.25 nM [^3H]Prozosin for 60 minutes at 25° C. Non-specific binding was estimated in the presence of 10 μM phentolamine. Receptor proteins were filtered and washed, the filters were then counted to determine [^3H]Prozosin specifically bound. Compounds of the invention were screened at 1 μM or lower, using 1% DMSO as vehicle. Compounds of the invention were tested in this biochemical assay and percent inhibition of specific binding was determined. Biochemical assay results are presented as the percent inhibition of specific binding in Table 6.

Each structure is given as a SMILES string.

By inhibition is commonly meant the drop in the measured response relative to a control, in per cent.

As to `CNC(=O)CCn1c2c(c3cc(C)ccc31)CN(C)CC2` [Compound 1, 3-(1,2,3,4-tetrahydro-2,8-dimethylpyrido[4,3-b]indol-5-yl)-N-methylpropanamide], the inhibition at 1 µM amounted to 13% in assay [1], 4% in assay [2] and 5% in assay [3].
In the same order, the values of `Cc1ccc2c(c1)c1c(n2CCC(=O)NC2CCCC2)CCN(C)C1` [Compound 4, N-cyclopentyl-3-(1,2,3,4-tetrahydro-2,8-dimethylpyrido[4,3-b]indol-5-yl)propanamide] are 41%, 4% and 35%.
`C#CCn1c2c(c3cc(C)ccc31)CN(C)CC2` [CD73, 2,8-dimethyl-5-(prop-2-ynyl)-2,3,4,5-tetrahydro-1H-pyrido[4,3-b]indole]: the inhibition at 1 µM in assay [1] amounted to 84%; in assay [2] it was 43%; in assay [3] it was 65%.
The like results for `CCOC(=O)CCn1c2c(c3cc(C)ccc31)CN(C)CC2` [CD1, ethyl 3-(1,2,3,4-tetrahydro-2,8-dimethylpyrido[4,3-b]indol-5-yl)propanoate] were, in that order, 42%, 42% and 79%.
Turning to `Cc1ccc2c(c1)c1c(n2CC#N)CCN(C)C1` [CD61, 2-(1,2,3,4-tetrahydro-2,8-dimethylpyrido[4,3-b]indol-5-yl)acetonitrile], the inhibition at 1 µM worked out at 94% in assay [1], 39% in assay [2] and 82% in assay [3].
`Cc1ccc2c(c1)c1c(n2CCNC(=O)C2CCCNC2)CCN(C)C1` (stereo not drawn) [Compound 9, N-(2-(1,2,3,4-tetrahydro-2,8-dimethylpyrido[4,3-b]indol-5-yl)ethyl)piperidine-3-carboxamide]: the inhibition at 1 µM in assay [1] was 21%; in assay [2], -8%; in assay [3] it was 5%.
As for `Cc1ccc2c(c1)c1c(n2CCNC(=O)OCC(Cl)(Cl)Cl)CCN(C)C1` [Compound 8, 2,2,2-trichloroethyl 2-(1,2,3,4-tetrahydro-2,8-dimethylpyrido[4,3-b]indol-5-yl)ethylcarbamate], the inhibition at 1 µM is 80% in assay [1], 22% in assay [2] and 82% in assay [3].
In the same order, the values of `CCNC(=O)CCn1c2c(c3cc(C)ccc31)CN(C)CC2` [Compound 2, N-ethyl-3-(1,2,3,4-tetrahydro-2,8-dimethylpyrido[4,3-b]indol-5-yl)propanamide] are 22%, 2% and 10%.
In the same order, the values of `CCNC(=O)CCCn1c2c(c3cc(C)ccc31)CN(C)CC2` [Compound 6, N-ethyl-4-(1,2,3,4-tetrahydro-2,8-dimethylpyrido[4,3-b]indol-5-yl)butanamide] are 31%, 48% and 18%.
The like results for `CCOC(=O)CCCn1c2c(c3cc(C)ccc31)CN(C)CC2` [Compound 5, ethyl 4-(1,2,3,4-tetrahydro-2,8-dimethylpyrido[4,3-b]indol-5-yl)butanoate] were, in that order, 77%, 50% and 69%.
`Cc1ccc2c(c1)c1c(n2CCC(=O)NC2CCCCC2)CCN(C)C1` [Compound 3, N-cyclohexyl-3-(1,2,3,4-tetrahydro-2,8-dimethylpyrido[4,3-b]indol-5-yl)propanamide]: the inhibition at 1 µM in assay [1] came out at 14%; in assay [2], 1%; in assay [3], 8%.

The values above are taken from patent US9115137B2, “2,3,4,5-tetrahydro-1H-pyrido[4,3-B]indole compounds and methods of use thereof” (priority 2008, dated 2015).
